Experimental findings from patent US10716828B2, “Methods of modulating cellular homeostatic pathways and cellular survival” (Dana-Farber Cancer Institute, Inc., priority 2007, dated 2020) are described below.

The series concerns islets. Description: Toxicity to islets. The format is cell-based, mouse. The following applies: 3 μM.

Turning to `CSCC[C@@H]1NC(=O)[C@@](C)(NC(=O)[C@H](CCCNC(=N)N)NC(=O)[C@H](CC(C)C)NC(=O)[C@H](CCC(=O)O)NC(=O)[C@H](CCCNC(=N)N)NC(=O)CNC(=O)[C@H](Cc2ccc(O)cc2)NC(=O)[C@H](CCCNC(=N)N)NC(=O)[C@H](CCC(N)=O)NC(=O)[C@H](C)NC(=O)[C@H](C)NC(=O)[C@H](Cc2c[nH]c3ccccc23)NC(=O)[C@H](CC(C)C)NC(=O)[C@@H](N)CC(N)=O)CCCC=CCCC[C@@](C)(C(=O)N[C@@H](Cc2ccccc2)C(=O)N[C@H](C(=O)N[C@@H](CC(=O)O)C(=O)N[C@@H](CO)C(=O)N[C@@H](Cc2ccccc2)C(=O)N[C@@H](CCCCN)C(=O)N[C@@H](CCCCN)C(=O)O)C(C)C)NC(=O)[C@H](CC(=O)O)NC(=O)[C@H](CO)NC1=O` [BAD SAHBA], the toxicity to islets entry is reported as “not toxic to islets”.
